The text below walks through data of patent US7589097B2, “Triazol[4,5-d] pyramidine derivatives and their use as purinergic receptor antagonists” (Vernalis Research Limited, priority 2001, dated 2009).

Some results are limits rather than exact numbers.

Data set [1] addresses human adenosine A2A receptors (Homo sapiens, UniProt P29274). Description: Binding affinities at hA2A receptors, displacement of [3H]-CGS 21680. The source says: Adenosine Receptor Binding Binding Affinities at hA2A Receptors

Chain of human adenosine A2A receptors (P29274 whole entry): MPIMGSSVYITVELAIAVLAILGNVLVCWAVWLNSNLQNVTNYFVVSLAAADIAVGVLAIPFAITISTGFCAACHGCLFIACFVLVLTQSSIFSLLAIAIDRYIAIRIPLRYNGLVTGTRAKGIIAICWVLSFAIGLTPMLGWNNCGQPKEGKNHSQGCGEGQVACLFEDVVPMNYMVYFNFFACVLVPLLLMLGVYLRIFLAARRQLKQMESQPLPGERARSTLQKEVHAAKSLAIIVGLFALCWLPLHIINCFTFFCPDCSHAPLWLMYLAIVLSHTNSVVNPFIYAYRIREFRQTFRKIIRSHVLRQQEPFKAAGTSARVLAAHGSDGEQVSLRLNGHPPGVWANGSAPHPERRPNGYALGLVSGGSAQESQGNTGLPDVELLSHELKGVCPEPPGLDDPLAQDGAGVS

In turn, `Nc1nc(-c2ccco2)c2nnn(Cc3cccc(NCc4ccccn4)c3)c2n1` [Example 255, 3-(3-(2-pyridylmethylamino)benzyl)-7-(2-furyl)-3H-[1,2,3]triazolo[4,5-d]pyrimidine-5-amine] had a melting point of 184.5 to 184.6 °C. Further, in data set [1], the affinity, expressed as Ki, was 4 nM.
As to `Nc1nc(-c2ccco2)c2nnn(Cc3ccc(O)cc3)c2n1` [Example 221, 3-(4-Hydroxybenzyl)-7-(2-furyl)-3H-[1,2,3]triazolo[4,5-d]pyrimidine-5-amine], the affinity in data set [1], expressed as Ki, was 2 nM.
The molecule `Nc1nc(-c2ccco2)c2nnn(Cc3ccc(Cl)s3)c2n1` [Example 8, 3-(5-chloro-2-thienyl)methyl-7-(2-furyl)-3H-[1,2,3]triazolo[4,5-d]pyrimidine-5-amine] had an inhibition constant (Ki) in data set [1] of 3 nM. Compared with the last molecule, the Ki is about 1.5-fold higher.
On the same count and under the same terms, next, `Nc1nc(-c2ccco2)c2nnn(Cc3cc([N+](=O)[O-])ccc3F)c2n1` [Example 78, 3-(2-fluoro-5-nitrobenzyl)-7-(2-furyl)-3H-[1,2,3]triazolo[4,5-d]pyrimidine-5-amine]: 3 nM.
For `Nc1nc(-c2ccco2)c2nnn(Cc3cccc(F)c3F)c2n1` [Example 57, 3-(2,3-difluorobenzyl)-7-(2-furyl)-3H-[1,2,3]triazolo[4,5-d]pyrimidine-5-amine], the melting point is 188.8 to 188.9 °C. The molecule further had a Ki in data set [1] of 2 nM.
With `Nc1nc(-c2ccco2)c2nnn(Cc3ccccc3F)c2n1` [Example 3, 3-(2-Fluorobenzyl)-7-(2-furyl)-3H-[1,2,3]triazolo[4,5-d]pyrimidine-5-amine], the affinity in data set [1], expressed as Ki, was 3 nM.
Turning to `Nc1cccc(Cn2nnc3c(-c4ccco4)nc(N)nc32)c1` [Example 5, 3-(3-Aminobenzyl)-7-(2-furyl)-3H-[1,2,3]triazolo[4,5-d]pyrimidine-5-amine], the melting point lay within 259.8 to 259.9 °C. The same molecule showed an inhibition constant Ki in data set [1] of 3 nM.
In turn, `Nc1nc(-c2ccco2)c2nnn(Cc3cc(I)ccc3F)c2n1` [Example 169, 3-(2-fluoro-5-iodobenzyl)-7-(2-furyl)-3H-[1,2,3]triazolo[4,5-d]pyrimidine-5-amine] gave a Ki in data set [1] of 2 nM. This lies in the single-digit nanomolar range.
The molecule `COc1cc(F)c(Cn2nnc3c(-c4ccco4)nc(N)nc32)c(F)c1` [Example 156, 3-(2,6-Difluoro-4-methoxybenzyl)-7-(2-furyl)-3H-[1,2,3]triazolol[4,5-d]pyrimidine-5-amine] returned a melting point of 274.2 to 274.3 °C. The inhibition constant Ki in data set [1] was 2 nM.
The matching figures for `C=Cc1cccc(Cn2nnc3c(-c4ccco4)nc(N)nc32)n1` [Example 202, 7-(2-furyl)-3-(6-vinyl-2-pyridylmethyl)-3H-[1,2,3]triazolo[4,5-d]pyrimidine-5-amine]: 210.5 to 211.6 °C and 1 nM.
The corresponding values for `CN(C)Cc1cccc(Cn2nnc3c(-c4ccco4)nc(N)nc32)n1` [Example 233, 3-(6-(N,N-dimethylamino)methyl-2-pyridylmethyl)-7-(2-furyl)-3H-[1,2,3]triazolo[4,5-d]pyrimidine-5-amine] are 219.7 to 222.3 °C and 4 nM.
The corresponding values for `Nc1nc(-c2ccco2)c2nnn(Cc3cccc4cccnc34)c2n1` [Example 107, 7-(2-furyl)-3-(8-quinolinylmethyl)-3H-[1,2,3]triazolo[4,5-d]pyrimidine-5-amine] are 276.4 to 277.4 °C and 2 nM.
Take `Nc1nc(-c2ccco2)c2nnn(Cc3ccccc3[N+](=O)[O-])c2n1` [Example 12, 7-(2-furyl)-3-(2-nitrobenzyl)-3H-[1,2,3]triazolo[4,5-d]pyrimidine-5-amine]: in data set [1], the inhibition constant Ki is 7 nM. This counts as single-digit nanomolar.
Still for that read-out and setting: next, `N#Cc1cccc(Cn2nnc3c(-c4ccco4)nc(N)nc32)c1` [Example 15, 3-(3-cyanobenzyl)-7-(2-furyl)-3H-[1,2,3]triazolo[4,5-d]pyrimidine-5-amine]: 4 nM.
Molecule `Nc1nc(-c2ccco2)c2nnn(Cc3c(F)cccc3F)c2n1` [Example 41, 3-(2,6-difluorobenzyl)-7-(2-furyl)-3H-[1,2,3]triazolo[4,5-d]pyrimidine-5-amine] yielded a melting point of 213.8 to 213.9 °C. This molecule registered a Ki in data set [1] of 2 nM.
In data set [1], `Nc1nc(-c2ccco2)c2nnn(Cc3ccccc3N)c2n1` [Example 13, 3-(2-aminobenzyl)-7-(2-furyl)-3H-[1,2,3]triazolo[4,5-d]pyrimidine-5-amine] had an inhibition constant (Ki) of 2 nM.
Still for that read-out and setting: next, `Nc1nc(-c2ccco2)c2nnn(Cc3cccc([N+](=O)[O-])c3)c2n1` [Example 4, 7-(2-furyl)-3-(3-nitrobenzyl)-3H-[1,2,3]triazolo[4,5-d]pyrimidine-5-amine]: 4 nM.
The molecule `Cc1cccc(Cn2nnc3c(-c4ccco4)nc(N)nc32)c1[N+](=O)[O-]` [Example 92, 7-(2-furyl)-3-(3-methyl-2-nitrobenzyl)-3H-[1,2,3]triazolo[4,5-d]pyrimidine-5-amine] registered a melting point of 267.9 to 268.5 °C. The affinity in data set [1], expressed as Ki, was 2 nM.
Regarding `Nc1nc(-c2ccco2)c2nnn(Cc3c(F)cc(O)cc3F)c2n1` [Example 149, 3-(2,6-difluoro-4-hydroxybenzyl)-7-(2-furyl)-3H-[1,2,3]triazolo[4,5-d]pyrimidine-5-amine], the Ki in data set [1] was found to be 1 nM.
Still for that read-out and setting: then `COc1cccc(Cn2nnc3c(-c4ccco4)nc(N)nc32)c1` [Example 11, 7-(2-furyl)-3-(3-methoxybenzyl)-3H-[1,2,3]triazolo[4,5-d]pyrimidine-5-amine], with 2 nM.
`Nc1nc(-c2ccco2)c2nnn(Cc3ccc4c(c3)OCO4)c2n1` [Example 209, 7-(2-furyl)-3-(3,4-methylenedioxybenzyl)-3H-[1,2,3]triazolo[4,5-d]pyrimidine-5-amine]: the melting point is > 250 °C (dec.). The Ki in data set [1] is 1 nM.
The molecule `Cc1nc(-c2nc(N)nc3c2nnn3Cc2cccc(N)c2)sc1C` [Example 240, 3-(3-aminobenzyl)-7-(4,5-dimethyl-2-thiazolyl)-3H-[1,2,3]triazolo[4,5-d]pyrimidine-5-amine] had a melting point of 254.3 to 254.5 °C.
`Cc1ccc(-c2nc(N)nc3c2nnn3Cc2ccc(N)c(C)c2)o1` [Example 124, 3-(4-amino-3-methylbenzyl)-7-(5-methyl-2-furyl)-3H-[1,2,3]triazolo[4,5-d]pyrimidine-5-amine] displayed a melting point of 215.7 to 216.7 °C.
On the same count and under the same terms, next, `Cc1ccc(Cn2nnc3c(-c4ccco4)nc(N)nc32)cc1N` [Example 90, 3-(3-amino-4-methylbenzyl)-7-(2-furyl)-3H-[1,2,3]triazolo[4,5-d]pyrimidine-5-amine]: 268.5 to 269.1 °C.
Same read-out and setting: next, `Cc1cccnc1Cn1nnc2c(-c3ccco3)nc(N)nc21` [Example 95, 7-(2-furyl)-3-(3-methyl-2-pyridylmethyl)-3H-[1,2,3]triazolo[4,5-d]pyrimidine-5-amine]: 249.8 to 250 °C.
`Nc1nc(-c2ccco2)c2nnn(Cc3ccc4ccccc4n3)c2n1` [Example 188, 7-(2-furyl)-3-(quinolin-2-ylmethyl)-3H-[1,2,3]triazolo[4,5-d]pyrimidine-5-amine] returned a melting point of 228.9 to 229.9 °C. Further, in data set [1], the inhibitory constant (Ki) turned out to be 1 nM.
Regarding `Cc1ccc(-c2nc(N)nc3c2nnn3Cc2ccc(N)cc2)o1` [Example 184, 3-(4-aminobenzyl)-7-(5-methyl-2-furyl)-3H-[1,2,3]triazolo[4,5-d]pyrimidine-5-amine], the melting point was 219.7 to 220.4 °C.
